Where two headings read alike, the source gives them in different places.
Tests used:
Assay type in all cases: in vivo
[1] = system: apple scab pathogen (Venturia inaequalis); assay: Apple scab control test (100 ppm spray on apple seedlings); conditions: 336 h; apple seedlings (Ralls Janet), emulsion sprayed at 100 ppm, inoculated with Venturia inaequalis, 2 weeks
Method: Ralls Janet, leaf stage: 3 to 4) cultivated in unglazed pots and allowed to air-dry at room temperature. Subsequently, the seedlings were inoculated with conidiospores of apple scab pathogen (Venturia inaequalis) followed by holding for 2 weeks indoors at 20° C. and high humidity using a 12 hour light/dark cycle. The appearance of lesions on the leaves was compared with untreated seedlings to determine control effects.

[2] = system: rice blast pathogen (Magnaporthe grisea); conditions: rice seedlings (Koshihikari), 400 ppm dropped onto water surface, inoculated two days later
[3] = system: cucumber gray mold pathogen (Botrytis cinerea); assay: Cucumber gray mold control test; conditions: 96 h, cucumber seedlings (Sagami Hanjiro), emulsion sprayed at 100 ppm, 4 days
Method: Sagami Hanjiro, leaf stage: cotyledon) cultivated in unglazed pots, and allowed to air-dry at room temperature. Subsequently, the seedlings were drip-inoculated with conidiospore suspensions of cucumber gray mold pathogen (Botrytis cinerea) followed by holding for 4 days in a dark room at 20° C. and high humidity. The appearance of lesions on the leaves was compared with untreated seedlings to determine control effects.

[4] = system: rice blast pathogen (Magnaporthe grisea); conditions: rice seedlings (Koshihikari), 400 ppm dropped onto water surface, inoculated 14 days later

SMILES	pest or weed control at 100 ppm [1] [%]	control effects [2]	pest or weed control at 100 ppm [3] [%]	control effects [4]
CCNC(=O)C(C)(C)c1ncccc1Oc1cnc2c(F)cccc2c1 [a-55, N-ethyl-2-[3-(8-fluoro-quinolin-3-yloxy)-pyridin-2-yl]-isobutylamide]	≥ 75	–	–	–
CC(C)OC(=O)C(C)(C)c1ccccc1Oc1cnc2c(F)c(F)ccc2n1 [Compound 1-24]	–	B (Control value of 40% to less than 60%)	–	–
COC(C)(C)c1ncccc1Oc1cc2cccc(F)c2nc1C [a-16, 3-[2-(2-methoxy-2-propyl)pyridin-3-yloxy]-8-fluoro-2-methylquinoline]	≥ 75	–	≥ 75	–
CC(=O)c1ncccc1Oc1cc2cccc(F)c2nc1C [a-9, 1-[3-(2-methyl-8-fluoroquinolin-3-yloxy)-pyridin-2-yl]-ethanone]	≥ 75	–	–	–
CC(C)(C(=O)O)c1ncccc1Oc1cnc2c(F)cccc2c1 [a-19, 2-[3-(8-fluoro-quinolin-3-yloxy)-pyridin-2-yl]-2-methylpropionic acid]	≥ 75	–	–	–
CC(C)(O)c1ncccc1Oc1cnc2c(F)cccc2c1 [a-8]	–	–	–	B (Control value of 40% to less than 60%)
COC(C)(C)c1ncccc1Oc1nc2ccc(F)c(F)c2nc1C [Compound 1-35, 5,6-difluoro-2-[2-(1-methoxy-1-methyl-ethyl)-pyridin-3-yloxy]-3-methyl-quinoxaline]	≥ 75	–	≥ 75	–
CCOC(C)(C)c1ncccc1Oc1cc2cccc(F)c2nc1C [a-56, 3-[2-(2-ethoxy-2-propyl)pyridin-3-yloxy]-8-fluoro-2-methylquinoline]	≥ 75	–	≥ 75	–
CC(=O)C(C)(C)c1ncccc1Oc1cnc2c(F)cccc2c1 [a-15, 3-[3-(8-fluoro-quinolin-3-yloxy)-pyridin-2-yl]-3-methyl-butan-2-one]	≥ 75	–	≥ 75	–
CC(C)(C#N)c1ncccc1Oc1cnc2c(F)cccc2c1 [a-11, 2-[3-(8-fluoro-quinolin-3-yloxy)-pyridin-2-yl]-2-methylpropionitrile]	≥ 75	–	≥ 75	–
CC(=O)C(C)(C)c1c(F)cccc1Oc1cnc2c(F)cccc2n1 [Compound 1-10, 3-[2-fluoro-6-(5-fluoro-quinoxalin-2-yloxy)-phenyl]-3-methyl-butan-2-one]	≥ 75	–	≥ 75	–
CC(C)(C=O)c1ncccc1Oc1cnc2c(F)cccc2c1 [a-21, 2-[3-(8-fluoro-quinolin-3-yloxy)-pyridin-2-yl]-2-methyl-propioaldehyde]	≥ 75	–	≥ 75	–
CCOC(=O)C(C)(C)c1ncccc1Oc1cnc2c(F)cccc2c1 [a-12, 2-[3-(8-fluoro-quinolin-3-yloxy)-pyridin-2-yl]-2-methylpropionic acid ethyl ester]	≥ 75	–	≥ 75	–
Cc1nc2c(F)cccc2cc1Oc1cccnc1C(C)(C)O [a-7, 2-[(8-fluoro-2-methylquinolin-3-yloxy)pyridine-2-yl]propan-2-ol]	≥ 75	–	≥ 75	–
